ChEMBL document CHEMBL1909046, “DrugMatrix in vitro pharmacology data”

Legend:
[1] = DRUGMATRIX: Serotonin (5-Hydroxytryptamine) 5-HT3 radioligand binding (ligand: [3H] GR-65630); format: cell membranes, Membrane; settings: hek293; Not Active = under 50% inhibition at 10 µM
[2] = target: T1, Vasoactive intestinal polypeptide receptor 1 (Homo sapiens, UniProt P32241); format: cell membranes, Membrane; settings: ht-29; note: in other assays of this panel Not Active means under 50% inhibition at 10 µM
T1 sequence (P32241 whole entry): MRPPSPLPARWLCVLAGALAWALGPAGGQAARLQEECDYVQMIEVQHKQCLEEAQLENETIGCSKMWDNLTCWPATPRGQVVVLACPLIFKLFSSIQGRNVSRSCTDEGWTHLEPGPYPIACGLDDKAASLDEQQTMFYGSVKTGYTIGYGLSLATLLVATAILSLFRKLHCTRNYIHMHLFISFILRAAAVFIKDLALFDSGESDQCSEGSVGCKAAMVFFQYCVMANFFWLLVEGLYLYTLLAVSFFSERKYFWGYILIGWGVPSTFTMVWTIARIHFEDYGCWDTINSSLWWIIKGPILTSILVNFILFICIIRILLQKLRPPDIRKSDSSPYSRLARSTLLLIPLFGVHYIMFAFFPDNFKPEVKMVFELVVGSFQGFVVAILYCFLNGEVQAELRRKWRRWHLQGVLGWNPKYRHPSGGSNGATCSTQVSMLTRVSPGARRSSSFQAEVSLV

[3] = DRUGMATRIX: GABAA, Chloride Channel, TBOB radioligand binding (ligand: [3H] TBOB); format: cell membranes, Rattus norvegicus, Wistar, Cerebral cortex, Membrane; settings: Not Active = under 50% inhibition at 10 µM
[4] = target: T2, Cysteinyl leukotriene receptor 1 (Homo sapiens, UniProt Q9Y271); format: cell membranes, CHO-K1, Membrane; settings: cho-k1; note: in other assays of this panel Not Active means under 50% inhibition at 10 µM
T2 sequence (Q9Y271 whole entry): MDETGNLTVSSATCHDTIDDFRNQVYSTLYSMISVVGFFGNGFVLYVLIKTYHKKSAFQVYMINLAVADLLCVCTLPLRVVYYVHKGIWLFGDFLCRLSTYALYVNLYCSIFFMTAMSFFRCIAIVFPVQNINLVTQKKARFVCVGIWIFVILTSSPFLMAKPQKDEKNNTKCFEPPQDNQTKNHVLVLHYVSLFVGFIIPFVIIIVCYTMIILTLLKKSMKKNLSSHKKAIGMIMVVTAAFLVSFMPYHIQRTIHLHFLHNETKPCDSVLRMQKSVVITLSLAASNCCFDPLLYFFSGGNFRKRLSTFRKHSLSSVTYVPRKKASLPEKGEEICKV

[5] = target: T3, Amine oxidase [flavin-containing] A (Homo sapiens, UniProt P21397); experiment: DRUGMATRIX: Monoamine Oxidase MAO-A enzyme inhibition (substrate: Kynuramine); parameters: species or system BTI-TN-5B1-4; settings: bti-tn-5b1-4; Not Active = under 50% inhibition at 10 µM
T3 sequence (P21397 whole entry): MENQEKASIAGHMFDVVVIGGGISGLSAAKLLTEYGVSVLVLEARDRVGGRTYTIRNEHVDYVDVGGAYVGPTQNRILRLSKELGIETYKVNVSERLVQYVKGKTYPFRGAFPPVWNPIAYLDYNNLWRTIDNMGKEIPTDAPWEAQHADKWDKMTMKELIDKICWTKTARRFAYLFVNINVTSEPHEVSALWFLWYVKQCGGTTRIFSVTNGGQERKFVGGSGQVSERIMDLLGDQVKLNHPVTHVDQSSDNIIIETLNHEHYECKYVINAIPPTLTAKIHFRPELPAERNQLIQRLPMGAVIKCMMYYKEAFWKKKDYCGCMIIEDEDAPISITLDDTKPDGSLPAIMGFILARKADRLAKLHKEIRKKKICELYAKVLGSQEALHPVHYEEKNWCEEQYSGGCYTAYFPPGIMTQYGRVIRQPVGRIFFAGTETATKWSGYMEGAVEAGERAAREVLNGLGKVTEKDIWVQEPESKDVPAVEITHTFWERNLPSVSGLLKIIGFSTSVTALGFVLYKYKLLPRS

[6] = target: Tyrosine-protein kinase Fyn (Homo sapiens, UniProt P06241); experiment: biochemical; format: cell-based, Insect cells; settings: insect cells;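 note: enzymatic inhibition of Fyn kinase activity measured with Poly(Glu:Tyr) as the phosphorylation substrate; in other assays of this panel Not Active means under 50% inhibition at 10 µM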
Sequence of Tyrosine-protein kinase Fyn (P06241 whole entry): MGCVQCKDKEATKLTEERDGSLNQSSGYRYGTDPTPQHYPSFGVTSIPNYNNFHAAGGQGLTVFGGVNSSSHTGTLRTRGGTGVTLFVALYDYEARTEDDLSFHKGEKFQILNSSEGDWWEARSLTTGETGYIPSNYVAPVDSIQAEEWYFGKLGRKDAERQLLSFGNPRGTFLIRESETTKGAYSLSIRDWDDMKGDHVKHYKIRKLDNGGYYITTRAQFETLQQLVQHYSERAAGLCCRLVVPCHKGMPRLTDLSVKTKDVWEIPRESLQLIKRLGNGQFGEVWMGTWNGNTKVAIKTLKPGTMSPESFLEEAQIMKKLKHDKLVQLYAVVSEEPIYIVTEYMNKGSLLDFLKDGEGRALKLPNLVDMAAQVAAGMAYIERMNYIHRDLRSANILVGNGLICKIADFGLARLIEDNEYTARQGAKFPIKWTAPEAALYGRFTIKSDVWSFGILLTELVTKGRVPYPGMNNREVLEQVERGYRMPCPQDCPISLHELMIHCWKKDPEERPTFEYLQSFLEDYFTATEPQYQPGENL

NC(=O)NO [HYDROXYUREA]
Not Active: IC50 [1] | Ki [1] | IC50 [2] | IC50 [3] | Ki [3] | IC50 [4] | IC50 [5] | IC50 [6]

CC(C)Cc1ccc(C(C)C(=O)O)cc1 (stereo not given) [IBUPROFEN]
Not Active: IC50 [1] | Ki [1] | IC50 [2] | IC50 [3] | Ki [3] | IC50 [4] | IC50 [5] | IC50 [6]

COc1ccc2c(c1)c(CC(=O)O)c(C)n2C(=O)c1ccc(Cl)cc1 [INDOMETHACIN]
Not Active: IC50 [1] | Ki [1] | IC50 [2] | IC50 [3] | Ki [3] | IC50 [4] | IC50 [5] | IC50 [6]

CCc1c2c(nc3ccc(OC(=O)N4CCC(N5CCCCC5)CC4)cc13)-c1cc3c(c(=O)n1C2)COC(=O)[C@]3(O)CC [IRINOTECAN]
Not Active: IC50 [1] | Ki [1] | IC50 [2] | IC50 [3] | Ki [3] | IC50 [4] | IC50 [5] | IC50 [6]

CC(C(=O)O)c1cccc(C(=O)c2ccccc2)c1 (stereo not given) [KETOPROFEN]
Not Active: IC50 [1] | Ki [1] | IC50 [2] | IC50 [3] | Ki [3] | IC50 [4] | IC50 [5] | IC50 [6]

Nc1ccn([C@@H]2CS[C@H](CO)O2)c(=O)n1 [LAMIVUDINE]
Not Active: IC50 [1] | Ki [1] | IC50 [2] | IC50 [3] | Ki [3] | IC50 [4] | IC50 [5] | IC50 [6]

O=S(=O)([O-])CCS.[Na+] [MESNA]
Not Active: IC50 [1] | Ki [1] | IC50 [2] | IC50 [3] | Ki [3] | IC50 [4] | IC50 [5] | IC50 [6]

C#C[C@]1(O)CC[C@H]2[C@@H]3CCc4cc(OC)ccc4[C@H]3CC[C@@]21C [MESTRANOL]
Not Active: IC50 [1] | Ki [1] | IC50 [2] | IC50 [3] | Ki [3] | IC50 [4] | IC50 [5] | IC50 [6]

CC(=O)Nc1cccc(O)c1 [METACETAMOL]
Not Active: IC50 [1] | Ki [1] | IC50 [2] | IC50 [3] | Ki [3] | IC50 [4] | IC50 [5] | IC50 [6]

Cc1ncc([N+](=O)[O-])n1CCO [METRONIDAZOLE]
Not Active: IC50 [1] | Ki [1] | IC50 [2] | IC50 [3] | Ki [3] | IC50 [4] | IC50 [5] | IC50 [6]

CC(C)(C(=O)c1cccnc1)c1cccnc1 [METYRAPONE]
Not Active: IC50 [1] | Ki [1] | IC50 [2] | IC50 [3] | Ki [3] | IC50 [4] | IC50 [5] | IC50 [6]

Oc1ccc(OCc2ccccc2)cc1 [MONOBENZONE]
Not Active: IC50 [1] | Ki [1] | IC50 [2] | IC50 [3] | Ki [3] | IC50 [4] | IC50 [5] | IC50 [6]

CC(C)(Oc1ccc(C2CCCc3ccccc32)cc1)C(=O)O (stereo not given) [NAFENOPIN]
Not Active: IC50 [1] | Ki [1] | IC50 [2] | IC50 [3] | Ki [3] | IC50 [4] | IC50 [5] | IC50 [6]

COc1ccc2cc([C@H](C)C(=O)O)ccc2c1 [NAPROXEN]
Not Active: IC50 [1] | Ki [1] | IC50 [2] | IC50 [3] | Ki [3] | IC50 [4] | IC50 [5] | IC50 [6]

CC(C)[C@H]1CC[C@H](C(=O)N[C@H](Cc2ccccc2)C(=O)O)CC1 [NATEGLINIDE]
Not Active: IC50 [1] | Ki [1] | IC50 [2] | IC50 [3] | Ki [3] | IC50 [4] | IC50 [5] | IC50 [6]
